Columns and labels:
Type in all cases: in vivo
lung tumor cells (A549) = assay: Tumor inhibition in A549 tumor-bearing nude mice, co-administration (Example 5, Table 7); details: dosed once, 7th day, probiotic component = heat-inactivated Saccharomyces boulardii
From the text: The method for determining the effect of combined drug administration in animal experiments was Burgi method (Burgi Y. Pharmacology; Drug actions and reactions. Cancerres. 1978, 38(2), 284-285). The Burgi method was modified by Zhengjun JIN (Zhengjun JIN, Equal probability and curve and “Q50”, Journal of the Second Shanghai Medical College; 1981, 1, 75-86) with q calculated as: q=EA+B/(EA+EB−EA×EB). In the following examples of the present invention, the combinational pharmaceutical efficacies (drug efficacies) of drug A and drug B co-administration was determined by ratio q of actual pharmaceutical efficacy (drug efficacy)/theoretical pharmaceutical efficacy (drug efficacy) according to Zhengjun JIN method, as follows.
Nude mice were used as experimental subjects, and lung tumor cells (A549) were used as modeling cells, 1×10^5 cells/mouse were injected into the right axilla subcutaneously for transplantation tumor modeling, and the average tumor volume of successfully modeled nude mice was 153.7 mm^3. The model animals were randomly divided into 18 groups, and the drugs were administered according to the drug components and administration route in Table 7. Each group was dosed once with an injection volume of […]. Wherein, the probiotic component was heat-inactivated Saccharomyces boulardii, and the administration route of group 16 was intra-tumoral injection of probiotic component followed by intra-tumoral injection of 10% arginine about 2 hours later. On the 7th day after drug administration, the animals were euthanized, and after dissection, the tumor tissue was taken out to determine the tumor weight, and the tumor inhibition rate (r) was calculated relative to the negative control group. Further, the actual efficacy/expected efficacy ratio q of a drug could also be calculated according to the therapeutic effect (tumor inhibition rate).

breast cancer 4T1 cells [1] = assay: Extra-tumoral local administration in 4T1 tumor-bearing BALB/c mice, R7d/R21d (Example 11, Table 17); details: subaxillary intradermal (extra-tumoral), twice at 7-day interval, 120 μl/mouse/time; for R7 d (relative tumor proliferation rate): day 7 after last dose; for R21 d (relative tumor proliferation rate): day 21 after last dose
Description: V=0.5×a×b^2, wherein a and b represent the length and width of the local lesion, respectively; Volume of the local lesion (e.g. tumor):
Local lesion (e.g., tumor) proliferation rate (R)=TV/CV×100, wherein TV and CV are the local lesion volumes in the study group and negative control group, respectively;
In the following examples of the present invention, the combinational pharmaceutical efficacies (drug efficacies) of drug A and drug B co-administration was determined by ratio q of actual pharmaceutical efficacy (drug efficacy)/theoretical pharmaceutical efficacy (drug efficacy) according to Zhengjun JIN method, as follows.
BALB/c mice were used as experimental subjects, and breast cancer 4T1 cells were used as modeling cells. 0.25×10^5 cells/mouse were injected into the right axilla subcutaneously for transplantation tumor modeling. On the 5th day after modeling, the test animals with visually obvious tumors were randomly divided into 12 groups, having 10 animals in each group. […] In groups 1-11, on days 7 and 21 after the last dose the tumor volume (V7d, V21d) were measured, and the relative tumor proliferation rates (R7d, R21d) were calculated relative to the negative control group on days 7 and 21 after the dose, so that the short-term therapeutic effectiveness (100%−R7d) and the medium- and long-term therapeutic effectiveness (100%−R21d) could be calculated, respectively. Further, based on the short-term therapeutic effectiveness and the medium- and long-term therapeutic effectiveness, the actual/expected ratio for short-term pharmaceutical efficacies q7d and the actual/expected ratio for medium- and long-term pharmaceutical efficacies q21d were calculated respectively.

breast cancer 4T1 cells [2] = assay: Tumor inhibition rate r′10d, r′30d in 4T1 tumor-bearing BALB/c mice (Example 12, Table 18, series A); details: series A modeled mice, intratumoral injection twice at 3-day interval, 50 ul/mouse/time; for Series A r′10d (tumor inhibition rate): 10th day after 1st administration; for Series A r′30d (tumor inhibition rate): 30th day after 1st administration
Description: BALB/c mice were used as experimental subjects, in which modeled animals were used as series A and unmodeled animals as series B. Breast cancer 4T1 cells were use as modeling cells for modeled animals. 0.25×10^5 cells/animal were injected into the right axilla subcutaneously for transplantation tumor modeling, and the average tumor volume of successfully modeled nude mice was 173.6 mm^3. The modeled animals were randomly divided into 18 groups, with 10 animals in each group, and the drugs according to Table 18 was administered via intratumoral injection. BALB/c mice were additionally taken as experimental subjects without modeling, and randomly divided into 18 groups, with 10 animals in each group, the drugs according to Table 18 was administered via intramuscular injection into the right hind thigh. All the study drugs comprising probiotic components were formulated as aqueous formulations according to the preparation method of Example 1, and the other drugs were formulated as aqueous solutions according to the existing well-known methods. Each group was administered twice at an interval of 3 days, and the dosage was 50 ul/mouse/time.
On the 30th day after the first administration, each group of series A and each group of series B were subcutaneous cell transplantation of 1×10^5 breast cancer 4T1 cells/mouse and 0.2×10^5 fibroblast 3T3 cells/mouse respectively to left anterior axilla and left posterior axilla. The tumor incidence rates of 4T1 cell transplantation (S4T1) and of 3T3 cell transplantation (S3T3) in each group were observed on the 10th day after the cell transplantation, wherein the tumor incidence rate S=(number of tumor-bearing animals/number of cell transplanted animals)×100%.

[3] = tested on: outer lateral muscle mass of the right leg; assay: Local effect on normal muscle tissue, area of abnormal regions, nude mice
Description: The animals were euthanized on the 7th day after drug administration, and the specimens of the outer lateral muscle mass of the right leg from the nude mice were taken out by autopsy, and the areas of abnormal regions different from normal muscles, such as of necrosis and nodules, were measured after sectioning and washing.
Each group was dosed once with an injection volume of 100 μl/mouse by administering to the outer lateral muscle mass of the right leg. On the 7th day after drug administration, the animals were euthanized, and the specimens of the outer lateral muscle mass of the right leg were taken out after dissection to perform a general pathological analysis. The sections were measured for the area of abnormal regions that distinguished from normal muscle, such as necrosis and nodules.

[4] = tested on: outer lateral muscle mass of the right leg; assay: Local effect on normal muscle tissue, area of abnormal regions, BALB/c mice (Example 9, Table 15); details: dosed once into muscle, 100 ul/mouse, 7th day
Description: BALB/c mice were used as experimental subjects, and the model animals were randomly divided into 4 groups, having 6 animals in each group. The drugs were administered according to Table 15. […] On the 7th day after drug administration, the animals were euthanized. The specimens of the outer lateral muscle mass of the right leg were taken out by autopsy, and perform a general pathological analysis. The sections were measured for the area of abnormal regions such as necrosis and nodules that distinguished from normal muscle.

[5] = intratumoral injection, '+' = arginine injected about 2 hours later

SMILES | Tumor inhibition rate r (lung tumor cells (A549); [5]) [%] | Tumor weight (x ± s) (lung tumor cells (A549); [5]) [g] | Tumor inhibition rate r (lung tumor cells (A549); intravenous injection) [%] | Tumor weight (x ± s) (lung tumor cells (A549); intravenous injection) [g] | R7 d (relative tumor proliferation rate) (breast cancer 4T1 cells [1]) [%] | R21 d (relative tumor proliferation rate) (breast cancer 4T1 cells [1]) [%] | Series A r′10d (tumor inhibition rate) (breast cancer 4T1 cells [2]) [%] | Series A r′30d (tumor inhibition rate) (breast cancer 4T1 cells [2]) [%] | Area of abnormal regions (necrosis, nodules) ([3]; dosed once into muscle 100 μl/mouse, 7th day (b197 experiment)) [mm^2] | Areas of the abnormal regions (necrosis, nodules) ([3]; injection into muscle 100 ul/mouse, 7th day (b168 experiment)) [mm^2] | Area of abnormal regions [4] [mm^2]
O=c1[nH]cc(F)c(=O)[nH]1 [1% 5-fluorouracil, 5-fluorouracil] | 46.6 | 0.116 ± 0.076 | 41.3 | 0.122 ± 0.065 | 73 | 93 | 38.5 | 6.1 |  |  | 
CCO [75% ethanol, ethanol] | 33.7 | 0.145 ± 0.084 | 2.7 | 0.203 ± 0.095 | 92 | 107 | 42.1 | 3.2 | 32.24±13.71 | 35.14±15.92 | 33.16 ± 13.44

— US20230405063A1, “USE OF PROBIOTIC COMPONENT AND PHARMACEUTICAL COMPOSITION CONTAINING PROBIOTIC COMPONENT” (CHENGDU KUACHANGAOPU MEDICAL TECHNOLOGY CO., LTD., priority 2020, published 2023)
